The text below walks through data of the supplement of paper PMC10307832.

Holding throughout (assay): relative viability (nuclei count vs DMSO), 5 days (fraction); higher = more cells survive
Compound in the experiment “Erlotinib + Pictilisib”: C#Cc1cccc(Nc2ncnc3cc(OCCOC)c(OCCOC)cc23)c1 [Erlotinib] + CS(=O)(=O)N1CCN(Cc2cc3nc(-c4cccc5[nH]ncc45)nc(N4CCOCC4)c3s2)CC1 [Pictilisib] (partner 1 µM)
In outline:
(§1)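 Cells from lung cancer lines were seeded into 1536-well plates and, one day later, dosed by pin tool. Treatments were either a single drug or a fixed dose of an anchor drug with five library-drug doses (not always all listed) in √10 steps. After 5 days, nuclei were stained in a one-step fixation (final 0.05% Triton X-100, 1% formaldehyde, 1 ug/ml Hoechst) and counted on 4× images, and relative viability is the treated-to-vehicle nuclei ratio, as the median of duplicate plates.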

Compound in the experiment “AT9283 + Linsitinib”: O=C(Nc1c[nH]nc1-c1nc2ccc(CN3CCOCC3)cc2[nH]1)NC1CC1 [AT9283] + C[C@]1(O)C[C@@H](c2nc(-c3ccc4ccc(-c5ccccc5)nc4c3)c3c(N)nccn32)C1 [Linsitinib] (partner 1 µM)
In outline:
as §1

Compound in the experiment “Erlotinib + Pemetrexed”: C#Cc1cccc(Nc2ncnc3cc(OCCOC)c(OCCOC)cc23)c1 [Erlotinib] + Nc1nc2[nH]cc(CCc3ccc(C(=O)N[C@@H](CCC(=O)O)C(=O)O)cc3)c2c(=O)[nH]1 [Pemetrexed] (partner 0.2 µM)
The procedure, abridged:
as §1

Compound in the experiment “AT9283 + Vorinostat”: O=C(Nc1c[nH]nc1-c1nc2ccc(CN3CCOCC3)cc2[nH]1)NC1CC1 [AT9283] + O=C(CCCCCCC(=O)Nc1ccccc1)NO [Vorinostat] (partner 1 µM)
In outline: as §1

Compound in the experiment “AT9283 + Alpelisib”: O=C(Nc1c[nH]nc1-c1nc2ccc(CN3CCOCC3)cc2[nH]1)NC1CC1 [AT9283] + Cc1nc(NC(=O)N2CCC[C@H]2C(N)=O)sc1-c1ccnc(C(C)(C)C(F)(F)F)c1 [Alpelisib] (partner 2 µM)
In outline:
as §1

As for NCI-H441, the relative viability with Erlotinib + Pictilisib (first compound 0.02 µM) was found to be 0.448; with Erlotinib + Pictilisib (first compound 0.2 µM), 0.495; in the experiment with Erlotinib + Pictilisib (first compound 0.6325 µM) it was 0.393; in the experiment with Erlotinib + Pictilisib (first compound 2 µM) it was 0.392; in the experiment with AT9283 + Linsitinib (first compound 0.003 µM), 0.535; in the experiment with AT9283 + Linsitinib (first compound 0.03 µM) it was 0.474. The relative viability with AT9283 + Linsitinib (first compound 0.09487 µM) was 0.142; with AT9283 + Linsitinib (first compound 0.3 µM), 0.165; with Erlotinib + Pemetrexed (first compound 0.02 µM), 0.284; in the experiment with Erlotinib + Pemetrexed (first compound 0.2 µM) it was 0.275; in the experiment with Erlotinib + Pemetrexed (first compound 0.6325 µM), 0.259; with Erlotinib + Pemetrexed (first compound 2 µM) it was 0.275. Also, the relative viability with AT9283 + Vorinostat (first compound 0.003 µM) came out at 0.698; with AT9283 + Vorinostat (first compound 0.03 µM), 0.499; with AT9283 + Vorinostat (first compound 0.09487 µM) it was 0.669; with AT9283 + Vorinostat (first compound 0.3 µM), 0.307; with AT9283 + Alpelisib (first compound 0.003 µM), 0.717; in the experiment with AT9283 + Alpelisib (first compound 0.03 µM), 0.641. Moreover, the values for the relative viability with AT9283 + Alpelisib (first compound 0.09487 µM) and with AT9283 + Alpelisib (first compound 0.3 µM) were 0.235 and 0.198, respectively.
